In publication PMC7731434, “Development and Validation of a Bioanalytical Method for 3′- and 6′-Sialyllactose in Minipig Liver and Kidney Using Liquid Chromatography-Tandem Mass Spectrometry and Its Application to Analysis of Tissue Distribution” (Molecules, 2020):
Where two headings read alike, the source gives them in different places.

What was measured:
[1] = Biological sample stability: benchtop (room temperature 4 h) and long-term (-80 °C, 34 days); format: physicochemical, minipig; settings: for Benchtop and long-term stability, RE (%): -80 °C 34 days then room temperature 4 h, n = 3; for Benchtop and long-term stability values (RE), range: all QC samples of 3′-SL and 6′-SL pooled
Procedure: (§1) Benchtop and long-term stability were evaluated simultaneously. The benchtop stability test was carried out at room temperature (24 °C) for 4 h using samples with long-term stability, i.e., those stored at −80 °C for 34 days. […] The post-preparative stability (RE) of samples after 21 h of storage at 10 °C in an autosampler tray ranged from –3.1% to 8.7% for liver QC samples and −10.2% to 4.7% for kidney QC samples of 3′-SL and 6′-SL. To investigate freeze/thaw stability, QC samples were frozen at −80 °C and thawed at room temperature over four cycles. The stability of all QC samples of 3′-SL and 6′-SL ranged from −6.7% to 7.6% for the liver and −9.3% to −3.2% for the kidney. All stability results satisfied the acceptance criterion of ±15% of the nominal concentration.
(§2) The biological samples were evaluated for benchtop, freeze/thaw, post-preparative, and long-term stability. The stability tests were performed by measuring LQC and HQC samples with three replicates. The background concentration of SL in the blank authentic tissues was set to the nominal LQC concentration in the stability test. As the background concentration of SL in the authentic matrix is similar to or higher than the LQC (60 ng/g), the deviation of the background concentration of SL markedly affects the accuracy of LQC. The background concentration of the blank samples was determined on initiation of the stability test. The HQC samples were prepared by adding a standard solution to the authentic matrix, and the results were calculated by subtracting the endogenous concentration in the blank matrix. Benchtop and long-term stability were evaluated simultaneously with the benchtop stability test carried out at room temperature (approximately 24 °C) for 4 h using samples with long-term stability (stored at −80 °C for 34 days). The post-preparative stability was assessed at 10 °C on an autosampler tray for 21 h. The freeze/thaw stability was evaluated by four cycles of freezing at −80 °C and thawing at room temperature.

[2] = Biological sample stability: post-preparative, autosampler tray; format: physicochemical, minipig; settings: for Post-preparative stability (RE), range: 21 h at 10 °C; for Post-preparative stability, RE (%): 10 °C for 21 h, n = 3
Procedure: as §1, §2

[3] = Biological sample stability: freeze/thaw, four cycles; format: physicochemical, minipig; settings: for Freeze/thaw stability, RE (%): four cycles -80 °C/room temperature, n = 3; for Freeze/thaw stability (RE), range: all QC samples of 3′-SL and 6′-SL pooled, four cycles
Procedure: as §1, §2

[4] = Tissue distribution study in minipigs after intravenous administration; format: in vivo, Yucatan minipigs; settings: minipig; for T/P Ratio Kidney/Plasma / T/P Ratio Liver/Plasma / Kp at 2 h / concentration at 2 h: 2 h after intravenous administration of 12.5 mg/kg; for T/P Ratio Kidney/Plasma / T/P Ratio Liver/Plasma / Kp at 2 h: 12.5 mg/kg; for Kp at 2 h / concentration at 2 h: Yucatan; for Kp at 2 h: iv
Procedure: A tissue distribution study was conducted involving intravenous injection of minipigs with 3′-SL and 6′-SL at a dose of 12.5 mg/kg. Kidney, liver, and blood samples were collected. The tissue to plasma (T/P) ratio was also calculated from the concentrations of 3′-SL and 6′-SL in the kidney, liver, and plasma, from the same minipigs at the same time points.
The tissue distribution of 3′-SL and 6′-SL in Yucatan minipigs was assessed following intravenous administration at a dose of 12.5 mg/kg. The animal experiments were performed in compliance with the Animal Welfare Act and Guide for the Care and Use of Laboratory Animals of Institute for Laboratory Animal Research (ILAR). The animals were kept in a single cage at constant room temperature (23 ± 3 °C) and 30–70% humidity under a regular 12-h light/12-h dark cycle. Animals were provided with approximately 25 g/kg/day food and water was freely available.
Two minipigs were sacrificed at 2 h after administration; liver and kidney tissues, and blood from the jugular vein, were then collected. Each tissue was immediately removed and washed with normal saline, blotted dry with a paper towel, cut into pieces with scissors, and individually homogenized with three volumes of normal saline (v/w) in an Ultra-Turrax apparatus (IKA Works, Wilmington, NC, USA). After blood collection into K2-EDTA tubes, blood samples were gently mixed and placed on crushed wet-ice/Kryorack (Streck Laboratories, Omaha, NE, USA). Following centrifugation at 20,740 × g for 3 min at 4 °C for separation of plasma, the plasma was transferred into labeled polypropylene tubes.
The collected tissues were analyzed using the method developed in this study, and the plasma was analyzed by the method described in our previous study (in press).

[5] = kidney, LQC (nominal = background concentration)
[6] = liver, LQC (nominal = background concentration)
[7] = kidney QC samples of 3′-SL and 6′-SL pooled
[8] = liver QC samples of 3′-SL and 6′-SL pooled
[9] = kidney / plasma, read-out: T/P Ratio Kidney/Plasma
[10] = liver / plasma, read-out: T/P Ratio Liver/Plasma
[11] = kidney, read-out: Tissue Concentration Kidney
[12] = liver, read-out: Tissue Concentration Liver
[13] = plasma, read-out: Tissue Concentration Plasma

| Compound | Benchtop and long-term stability, RE (%) ([1]; kidney, HQC 15,000 ng/g) | Benchtop and long-term stability, RE (%) [1, 5] [%] | Benchtop and long-term stability values (RE), range ([1]; kidney) | Benchtop and long-term stability, RE (%) ([1]; liver, HQC 15,000 ng/g) | Benchtop and long-term stability, RE (%) [1, 6] [%] | Benchtop and long-term stability values (RE), range ([1]; liver) | Post-preparative stability (RE), range [2, 7] | Post-preparative stability, RE (%) ([2]; kidney, HQC 15,000 ng/g) | Post-preparative stability, RE (%) [2, 5] [%] | Post-preparative stability (RE), range [2, 8] | Post-preparative stability, RE (%) ([2]; liver, HQC 15,000 ng/g) | Post-preparative stability, RE (%) [2, 6] [%] | Freeze/thaw stability, RE (%) ([3]; kidney, HQC 15,000 ng/g) | Freeze/thaw stability, RE (%) [3, 5] [%] | Freeze/thaw stability (RE), range ([3]; kidney) | Freeze/thaw stability, RE (%) ([3]; liver, HQC 15,000 ng/g) | Freeze/thaw stability, RE (%) [3, 6] [%] | Freeze/thaw stability (RE), range ([3]; liver) | T/P Ratio Kidney/Plasma [4] | T/P Ratio Liver/Plasma [4] | other results |
| --- | --- | --- | --- | --- | --- | --- | --- | --- | --- | --- | --- | --- | --- | --- | --- | --- | --- | --- | --- | --- | --- |
| CC(=O)N[C@H]1[C@H]([C@H](O)[C@H](O)CO)O[C@@](O[C@H]2[C@@H](O)[C@@H](CO)O[C@@H](O[C@H]3[C@H](O)[C@@H](O)[C@H](O)O[C@@H]3CO)[C@@H]2O)(C(=O)O)C[C@@H]1O [3′-SL, 3′-sialyllactose] | −6.0 | −9.2 | −10.1% to −6.0 | −5.3 | −7.6 | −7.6% to 3.7 | −10.2% to 4.7 | −3.3 | −10.2 | –3.1% to 8.7 | −2.7 | −1.3 | −8.0 | −3.2 | −9.3% to −3.2 | −6.7 | −5.8 | −6.7% to 7.6 | 1.0 | 0.12 | Kp at 2 h [4, 9]: 1 to 1.3; Kp at 2 h [4, 10]: 0.12 to 0.14; concentration at 2 h [4, 11]: 22300 ng/g; concentration at 2 h [4, 12]: 2550 ng/g; concentration at 2 h [4, 13]: 21500 ng/g |
| CC(=O)NC1C(O)CC(OCC2OC(OC3C(CO)OC(O)C(O)C3O)C(O)C(O)C2O)(C(=O)O)OC1C(O)C(O)CO (stereo not drawn) [6′-SL, 6′-sialyllactose] | −6.7 | −10.1 | −10.1% to −6.0 | −3.3 | 3.7 | −7.6% to 3.7 | −10.2% to 4.7 | 4.7 | 0.5 | –3.1% to 8.7 | 8.7 | −3.1 | −9.3 | −6.8 | −9.3% to −3.2 | −5.3 | 7.6 | −6.7% to 7.6 | 1.3 | 0.14 | Kp at 2 h [4, 9]: 1 to 1.3; Kp at 2 h [4, 10]: 0.12 to 0.14; concentration at 2 h [4, 11]: 27000 ng/g; concentration at 2 h [4, 12]: 3030 ng/g; concentration at 2 h [4, 13]: 21000 ng/g; Exposure of tissues to 6′-SL higher than that of 3′-SL ([4]; liver and kidney, 2 h after i.v. 12.5 mg/kg): approximately 20% |
